In assay [1] the target is T1, thioredoxin reductase 1 (TrxR1) (Rattus norvegicus, UniProt O89049).
T1 sequence (O89049 1-499): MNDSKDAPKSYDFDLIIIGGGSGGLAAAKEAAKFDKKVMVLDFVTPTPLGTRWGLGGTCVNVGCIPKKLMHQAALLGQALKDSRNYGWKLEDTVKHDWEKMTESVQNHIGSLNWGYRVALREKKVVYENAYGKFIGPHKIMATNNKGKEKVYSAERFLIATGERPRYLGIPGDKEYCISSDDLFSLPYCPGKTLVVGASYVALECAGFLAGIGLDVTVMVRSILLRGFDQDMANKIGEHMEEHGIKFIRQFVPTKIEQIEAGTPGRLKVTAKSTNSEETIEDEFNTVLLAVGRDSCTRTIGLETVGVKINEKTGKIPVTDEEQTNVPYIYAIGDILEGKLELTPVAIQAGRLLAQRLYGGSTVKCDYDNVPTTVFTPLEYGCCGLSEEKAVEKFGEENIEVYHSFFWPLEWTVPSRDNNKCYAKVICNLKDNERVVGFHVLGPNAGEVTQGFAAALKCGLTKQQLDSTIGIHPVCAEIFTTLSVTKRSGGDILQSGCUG
Nature of the assay: DTNB reduction assay with purified NADPH-reduced enzyme. It is filed as biochemical.

Assay [2] addresses T2, human TrxR1 Sec498Cys mutant enzyme (Homo sapiens, UniProt Q16881, U648C).
T2 sequence (Q16881 151-649 U648C): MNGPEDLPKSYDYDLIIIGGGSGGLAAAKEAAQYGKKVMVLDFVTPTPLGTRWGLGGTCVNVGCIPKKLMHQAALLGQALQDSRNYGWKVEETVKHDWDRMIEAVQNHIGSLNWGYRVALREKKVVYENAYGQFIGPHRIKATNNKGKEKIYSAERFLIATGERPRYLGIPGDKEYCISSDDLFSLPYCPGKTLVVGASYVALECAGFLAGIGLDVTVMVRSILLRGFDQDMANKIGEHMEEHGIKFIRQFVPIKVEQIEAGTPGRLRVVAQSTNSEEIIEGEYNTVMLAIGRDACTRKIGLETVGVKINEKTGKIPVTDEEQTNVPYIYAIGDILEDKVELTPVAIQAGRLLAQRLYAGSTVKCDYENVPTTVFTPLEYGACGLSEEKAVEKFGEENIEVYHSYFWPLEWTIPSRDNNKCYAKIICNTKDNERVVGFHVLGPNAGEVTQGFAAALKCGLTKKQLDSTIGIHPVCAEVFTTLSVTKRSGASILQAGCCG
Nature of the assay: DTNB reduction assay with recombinant mutant enzyme. It is filed as biochemical.

Molecules are shown by their SMILES. pIC50: −log10 of the molar value.

With `CC(=O)N=C1C=CC(=O)C=C1` [NAPQI, N-acetyl-p-benzoquinone imine], the pIC50 in assay [1] was 7.64; in assay [2] it was 4.77.

The values are drawn from paper PMC4033643 (Chemical research in toxicology, 2014).
